# Assay results as given in ChEMBL document CHEMBL3885861, “Open TG-GATES”.
# Organism: Rattus norvegicus
# Experiment: Open TG-GATES - Regimen: Daily Repeat
# Format: toxicity, organism-based, Sprague-Dawley
# Parameters: regimen Daily Repeat, gender Male, age 6 weeks
# Conditions: in vivo, po, 100 mg/kg, route gavage, dose level High; for APTT / Bas / Eos / Fbg / Hb / Ht / Lym / MCH / MCHC / MCV / Mono / Neu / PT / Plat / RBC / Ret / WBC: tissue Blood; for KIDNEY_L / KIDNEY_R / KIDNEY_TOTAL: tissue Kidney; for LIVER: tissue Liver; for A/G / ALP / ALT / AST / BUN / CRE / Ca / Cl / DBIL / GLC / IP / K / LDH / Na / PL / RALB / TBIL / TC / TG / TP / gamma-GTP: tissue Plasma
compound,measurement,setting,value
CN(C)CCN(Cc1cccs1)c1ccccn1,TERMINAL_BW,"72 h, time 3 day",205.4 g
same,APTT,"72 h, time 3 day",20.1 s
same,Bas,"72 h, time 3 day",0%
same,Eos,"72 h, time 3 day",1%
same,Fbg,"72 h, time 3 day",285.6 mg/dL
same,Hb,"72 h, time 3 day",13 g/dL
same,Ht,"72 h, time 3 day",38.7%
same,Lym,"72 h, time 3 day",75.2%
same,MCH,"72 h, time 3 day",20.8 pg
same,MCHC,"72 h, time 3 day",33.7%
same,MCV,"72 h, time 3 day",61.8 fL
same,Mono,"72 h, time 3 day",2.2%
same,Neu,"72 h, time 3 day",20.8%
same,PT,"72 h, time 3 day",15.9 s
same,Plat,"72 h, time 3 day",132.3 x10_4/uL
same,RBC,"72 h, time 3 day",626.8 x10_4/ul
same,Ret,"72 h, time 3 day",4.7%
same,WBC,"72 h, time 3 day",84.8 x10_2/uL
same,KIDNEY_L,"72 h, time 3 day",0.9 g
same,KIDNEY_R,"72 h, time 3 day",1 g
same,KIDNEY_TOTAL,"72 h, time 3 day",1.9 g
same,LIVER,"72 h, time 3 day",10.6 g
same,A/G,"72 h, time 3 day",1.2
same,ALP,"72 h, time 3 day",1934 IU/L
same,ALT,"72 h, time 3 day",61.2 IU/L
same,AST,"72 h, time 3 day",106.4 IU/L
same,BUN,"72 h, time 3 day",16.6 mg/dL
same,CRE,"72 h, time 3 day",0.2 mg/dL
same,Ca,"72 h, time 3 day",10.9 mg/dL
same,Cl,"72 h, time 3 day",107 meq/L
same,DBIL,"72 h, time 3 day",0.01 mg/dL
same,GLC,"72 h, time 3 day",160.2 mg/dL
same,IP,"72 h, time 3 day",7.6 mg/dL
same,K,"72 h, time 3 day",4.4 meq/L
same,LDH,"72 h, time 3 day",202.2 IU/L
same,Na,"72 h, time 3 day",142.2 meq/L
same,PL,"72 h, time 3 day",161.2 mg/dL
same,RALB,"72 h, time 3 day",2.8 g/dL
same,TBIL,"72 h, time 3 day",0.028 mg/dL
same,TC,"72 h, time 3 day",91.8 mg/dL
same,TG,"72 h, time 3 day",49 mg/dL
same,TP,"72 h, time 3 day",5.2 g/dL
same,gamma-GTP,"72 h, time 3 day",2 IU/L
same,TERMINAL_BW,"[…], time 7 day",222.8 g
same,TERMINAL_BW,"[…], time 14 day",237.7 g
same,TERMINAL_BW,"[…], time 28 day",237.4 g
same,APTT,"[…], time 7 day",18.6 s
same,Bas,"[…], time 7 day",0%
same,Eos,"[…], time 7 day",0.6%
same,Fbg,"[…], time 7 day",247 mg/dL
same,Hb,"[…], time 7 day",14.2 g/dL
same,Ht,"[…], time 7 day",42.3%
same,Lym,"[…], time 7 day",80.4%
same,MCH,"[…], time 7 day",20.5 pg
same,MCHC,"[…], time 7 day",33.5%
same,MCV,"[…], time 7 day",61.2 fL
same,Mono,"[…], time 7 day",2.4%
same,Neu,"[…], time 7 day",15.4%
same,PT,"[…], time 7 day",15.9 s
same,Plat,"[…], time 7 day",123.2 x10_4/uL
same,RBC,"[…], time 7 day",691.6 x10_4/ul
same,Ret,"[…], time 7 day",3.7%
same,WBC,"[…], time 7 day",124.5 x10_2/uL
same,APTT,"[…], time 14 day",21.1 s
same,Bas,"[…], time 14 day",0%
same,Eos,"[…], time 14 day",0.2%
same,Fbg,"[…], time 14 day",177.8 mg/dL
same,Hb,"[…], time 14 day",15.1 g/dL
same,Ht,"[…], time 14 day",44.1%
same,Lym,"[…], time 14 day",74%
same,MCH,"[…], time 14 day",19.5 pg
same,MCHC,"[…], time 14 day",34.3%
same,MCV,"[…], time 14 day",56.9 fL
same,Mono,"[…], time 14 day",3.2%
same,Neu,"[…], time 14 day",21.4%
same,PT,"[…], time 14 day",18.3 s
same,Plat,"[…], time 14 day",117.4 x10_4/uL
same,RBC,"[…], time 14 day",775 x10_4/ul
same,Ret,"[…], time 14 day",2.4%
same,WBC,"[…], time 14 day",140.8 x10_2/uL
same,APTT,"[…], time 28 day",24.5 s
same,Bas,"[…], time 28 day",0%
same,Eos,"[…], time 28 day",0.5%
same,Fbg,"[…], time 28 day",140.8 mg/dL
same,Hb,"[…], time 28 day",16.7 g/dL
same,Ht,"[…], time 28 day",48.9%
same,Lym,"[…], time 28 day",53.8%
same,MCH,"[…], time 28 day",18.1 pg
same,MCHC,"[…], time 28 day",34.1%
same,MCV,"[…], time 28 day",53 fL
same,Mono,"[…], time 28 day",5%
same,Neu,"[…], time 28 day",39.8%
same,PT,"[…], time 28 day",20.1 s
same,Plat,"[…], time 28 day",79.2 x10_4/uL
same,RBC,"[…], time 28 day",924.8 x10_4/ul
same,Ret,"[…], time 28 day",2.1%
same,WBC,"[…], time 28 day",178.3 x10_2/uL
same,KIDNEY_L,"[…], time 7 day",1 g
same,KIDNEY_R,"[…], time 7 day",1 g
same,KIDNEY_TOTAL,"[…], time 7 day",2 g
same,KIDNEY_L,"[…], time 14 day",1.1 g
same,KIDNEY_R,"[…], time 14 day",1.1 g
same,KIDNEY_TOTAL,"[…], time 14 day",2.1 g
same,KIDNEY_L,"[…], time 28 day",1.1 g
same,KIDNEY_R,"[…], time 28 day",1.1 g
same,KIDNEY_TOTAL,"[…], time 28 day",2.2 g
same,LIVER,"[…], time 7 day",11.6 g
same,LIVER,"[…], time 14 day",10.6 g
same,LIVER,"[…], time 28 day",9.7 g
same,A/G,"[…], time 7 day",1.1
same,ALP,"[…], time 7 day",2330.2 IU/L
same,ALT,"[…], time 7 day",145.2 IU/L
same,AST,"[…], time 7 day",324.2 IU/L
same,BUN,"[…], time 7 day",19 mg/dL
same,CRE,"[…], time 7 day",0.2 mg/dL
same,Ca,"[…], time 7 day",10.4 mg/dL
same,Cl,"[…], time 7 day",107.6 meq/L
same,DBIL,"[…], time 7 day",0.094 mg/dL
same,GLC,"[…], time 7 day",152.2 mg/dL
same,IP,"[…], time 7 day",8.7 mg/dL
same,K,"[…], time 7 day",4.6 meq/L
same,LDH,"[…], time 7 day",230.6 IU/L
same,Na,"[…], time 7 day",144 meq/L
same,PL,"[…], time 7 day",179 mg/dL
same,RALB,"[…], time 7 day",2.7 g/dL
same,TBIL,"[…], time 7 day",0.1 mg/dL
same,TC,"[…], time 7 day",100 mg/dL
same,TG,"[…], time 7 day",30.2 mg/dL
same,TP,"[…], time 7 day",5.2 g/dL
same,gamma-GTP,"[…], time 7 day",7 IU/L
same,A/G,"[…], time 14 day",1.1
same,ALP,"[…], time 14 day",2530.2 IU/L
same,ALT,"[…], time 14 day",69 IU/L
same,AST,"[…], time 14 day",237.2 IU/L
same,BUN,"[…], time 14 day",16.6 mg/dL
same,CRE,"[…], time 14 day",0.2 mg/dL
same,Ca,"[…], time 14 day",9.7 mg/dL
same,Cl,"[…], time 14 day",106.8 meq/L
same,DBIL,"[…], time 14 day",0.3 mg/dL
same,GLC,"[…], time 14 day",135.6 mg/dL
same,IP,"[…], time 14 day",8.2 mg/dL
same,K,"[…], time 14 day",4.1 meq/L
same,LDH,"[…], time 14 day",250.8 IU/L
same,Na,"[…], time 14 day",141.8 meq/L
same,PL,"[…], time 14 day",126.4 mg/dL
same,RALB,"[…], time 14 day",2.5 g/dL
same,TBIL,"[…], time 14 day",0.3 mg/dL
same,TC,"[…], time 14 day",57.4 mg/dL
same,TG,"[…], time 14 day",22 mg/dL
same,TP,"[…], time 14 day",4.8 g/dL
same,gamma-GTP,"[…], time 14 day",6.6 IU/L
same,A/G,"[…], time 28 day",1
same,ALP,"[…], time 28 day",1953.8 IU/L
same,ALT,"[…], time 28 day",94 IU/L
same,AST,"[…], time 28 day",418 IU/L
same,BUN,"[…], time 28 day",13.5 mg/dL
same,CRE,"[…], time 28 day",0.2 mg/dL
same,Ca,"[…], time 28 day",9.1 mg/dL
same,Cl,"[…], time 28 day",107.8 meq/L
same,DBIL,"[…], time 28 day",1 mg/dL
same,GLC,"[…], time 28 day",116.5 mg/dL
same,IP,"[…], time 28 day",7.6 mg/dL
same,K,"[…], time 28 day",3.9 meq/L
same,LDH,"[…], time 28 day",377.5 IU/L
same,Na,"[…], time 28 day",140.5 meq/L
same,PL,"[…], time 28 day",96.5 mg/dL
same,RALB,"[…], time 28 day",2 g/dL
same,TBIL,"[…], time 28 day",1 mg/dL
same,TC,"[…], time 28 day",38 mg/dL
same,TG,"[…], time 28 day",29.8 mg/dL
same,TP,"[…], time 28 day",4 g/dL
same,gamma-GTP,"[…], time 28 day",15.2 IU/L
